Laboratory results: patent publication US11040981B2, “Pyrrolotriazine compounds and methods of inhibiting TAM kinases” (Syros Pharmaceuticals, Inc., priority 2017, dated 2021)

Experiments:
[1] = molecular target: T1, FLT3 (Homo sapiens, UniProt P36888); assay: TR-FRET kinase activity assay, FLT3; format: biochemical; conditions: ATP at Km, 60 minutes
T1 sequence (P36888 27-993): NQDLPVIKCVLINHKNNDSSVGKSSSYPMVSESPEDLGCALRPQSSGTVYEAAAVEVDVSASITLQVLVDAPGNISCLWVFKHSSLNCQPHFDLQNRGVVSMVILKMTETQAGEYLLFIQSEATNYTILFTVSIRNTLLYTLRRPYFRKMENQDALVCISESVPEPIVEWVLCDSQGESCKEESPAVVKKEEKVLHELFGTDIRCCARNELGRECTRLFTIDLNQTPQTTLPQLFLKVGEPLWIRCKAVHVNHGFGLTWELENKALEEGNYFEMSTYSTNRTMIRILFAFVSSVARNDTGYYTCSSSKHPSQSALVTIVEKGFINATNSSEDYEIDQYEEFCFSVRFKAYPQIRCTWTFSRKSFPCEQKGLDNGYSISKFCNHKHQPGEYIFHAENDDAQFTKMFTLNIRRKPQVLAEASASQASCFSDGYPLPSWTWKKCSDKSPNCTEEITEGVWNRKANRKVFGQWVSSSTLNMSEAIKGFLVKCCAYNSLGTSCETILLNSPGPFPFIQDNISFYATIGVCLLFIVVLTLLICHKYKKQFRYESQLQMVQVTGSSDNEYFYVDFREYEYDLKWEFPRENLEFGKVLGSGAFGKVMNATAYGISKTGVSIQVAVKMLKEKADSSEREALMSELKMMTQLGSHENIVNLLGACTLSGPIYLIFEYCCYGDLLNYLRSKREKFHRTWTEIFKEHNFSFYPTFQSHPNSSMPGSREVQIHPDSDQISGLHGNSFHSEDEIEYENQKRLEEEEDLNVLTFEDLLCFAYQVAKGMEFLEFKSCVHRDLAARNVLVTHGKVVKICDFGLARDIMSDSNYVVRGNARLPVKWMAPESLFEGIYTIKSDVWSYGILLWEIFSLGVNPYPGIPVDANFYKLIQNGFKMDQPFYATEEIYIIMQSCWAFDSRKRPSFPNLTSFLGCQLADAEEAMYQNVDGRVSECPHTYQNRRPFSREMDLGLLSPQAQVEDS
Outline: (§1)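 Each kinase phosphorylated a fluorescent-labelled tyrosine peptide in 50 mM HEPES pH 7.5, 10 mM MgCl2, 1 mM EGTA, 0.01% Brij 35, 1 mM DTT at RT, with ATP at Km for that enzyme. After 60 min, EDTA quench and Eu-anti-phosphotyrosine antibody (30 min, dark); IC50 from TR-FRET decrease.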

[2] = molecular target: T2, MERTK (Homo sapiens, UniProt Q12866); assay: TR-FRET kinase activity assay, MERTK; format: biochemical; conditions: for IC50: TR-FRET activity assay, ATP at Km, 60 minutes, read-out: Mer IC50; for FLT3/Mer ratio (FLT3 IC50/Mer IC50): ratio calculated as FLT3 IC50/Mer IC50
T2 sequence (Q12866 21-999): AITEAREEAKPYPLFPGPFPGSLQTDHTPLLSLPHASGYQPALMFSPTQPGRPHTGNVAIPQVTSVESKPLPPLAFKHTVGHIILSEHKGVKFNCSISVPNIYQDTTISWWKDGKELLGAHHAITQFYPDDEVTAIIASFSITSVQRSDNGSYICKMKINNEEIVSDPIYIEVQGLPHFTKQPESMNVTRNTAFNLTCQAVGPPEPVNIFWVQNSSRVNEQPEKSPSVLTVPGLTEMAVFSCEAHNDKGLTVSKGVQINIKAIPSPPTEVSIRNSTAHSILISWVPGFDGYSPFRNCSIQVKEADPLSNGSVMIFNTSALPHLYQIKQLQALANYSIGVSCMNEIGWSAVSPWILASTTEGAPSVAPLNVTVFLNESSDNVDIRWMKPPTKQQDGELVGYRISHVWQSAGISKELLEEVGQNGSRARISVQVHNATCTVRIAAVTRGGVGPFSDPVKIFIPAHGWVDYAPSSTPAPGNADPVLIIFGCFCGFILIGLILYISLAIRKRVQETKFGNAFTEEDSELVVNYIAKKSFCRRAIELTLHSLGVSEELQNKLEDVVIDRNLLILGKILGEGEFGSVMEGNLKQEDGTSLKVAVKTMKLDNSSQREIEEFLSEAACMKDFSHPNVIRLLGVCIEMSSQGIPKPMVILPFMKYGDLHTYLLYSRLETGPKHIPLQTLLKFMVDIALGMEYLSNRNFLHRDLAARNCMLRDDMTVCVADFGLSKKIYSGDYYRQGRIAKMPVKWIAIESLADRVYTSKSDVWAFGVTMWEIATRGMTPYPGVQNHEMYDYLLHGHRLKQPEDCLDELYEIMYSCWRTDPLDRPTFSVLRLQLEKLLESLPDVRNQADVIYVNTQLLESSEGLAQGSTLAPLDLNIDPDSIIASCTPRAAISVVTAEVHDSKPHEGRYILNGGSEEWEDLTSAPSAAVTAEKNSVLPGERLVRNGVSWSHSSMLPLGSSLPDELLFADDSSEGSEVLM
Outline: as §1

Row | SMILES | IC50 [1] | IC50 [2] | FLT3/Mer ratio (FLT3 IC50/Mer IC50) [2]
1 | COC[C@H](C)Nc1ncc2c(-c3ccc([S@@](C)(=N)=O)nc3)cc([C@H]3CC[C@H](O)CC3)n2n1 [Compound 533] | 1000 to 10000 nM | ≤ 100 nM | +++ (“+++” represents a ratio of >100)
2 | COC[C@H](C)Nc1ncc2c(-c3ccnc(N4CCOC(C(C)(C)O)C4)c3)cc([C@H]3CC[C@H](O)CC3)n2n1 (stereo partly drawn) [Compound 534] | 100 to 1000 nM | ≤ 100 nM | +++ (“+++” represents a ratio of >100)
3 | C[C@H](Nc1ncc2c(-c3cnn(C(C)(C)C(=O)N4CCOCC4)c3)cc([C@H]3CC[C@H](O)CC3)n2n1)C(F)(F)F [Compound 537] | 1000 to 10000 nM | ≤ 100 nM | +++ (“+++” represents a ratio of >100)
4 | COCC(C)Nc1ncc2c(-c3ccc4cc[nH]c4c3)cc(C3CCC(O)CC3)n2n1 (stereo not drawn) [Compound 538] | 1000 to 10000 nM | ≤ 100 nM | +++ (“+++” represents a ratio of >100)
5 | COCC(C)Nc1ncc2c(-c3ccc4[nH]ccc4c3)cc(C3CCC(O)CC3)n2n1 (stereo not drawn) [Compound 539] | 1000 to 10000 nM | ≤ 100 nM | +++ (“+++” represents a ratio of >100)
6 | C[C@@H](CC(F)(F)F)Nc1ncc2c(-c3ccc([S@](C)(=N)=O)nc3)cc([C@H]3CC[C@H](O)CC3)n2n1 [Compound 540] | ≤ 100 nM | ≤ 100 nM | +++ (“+++” represents a ratio of >100)
7 | C[C@@H](CC(F)(F)F)Nc1ncc2c(-c3ccc([S@@](C)(=N)=O)nc3)cc([C@H]3CC[C@H](O)CC3)n2n1 [Compound 541] | ≤ 100 nM | ≤ 100 nM | ++ (“++” represents a ratio of between 10 and 100)
8 | CC(Nc1ncc2c(-c3cnn(C4COC4)c3)cc(C3CCC(O)CC3)n2n1)c1ccccn1 (stereo not drawn) [Compound 544] | 1000 to 10000 nM | 100 to 1000 nM | ++ (“++” represents a ratio of between 10 and 100)
9 | COC[C@H](C)Nc1ncc2c(-c3ccnc(N4CCOCC4)c3)cc([C@H]3CC[C@@H](O)CC3)n2n1 [Compound 546] | 100 to 1000 nM | ≤ 100 nM | +++ (“+++” represents a ratio of >100)
10 | COC[C@H](C)Nc1ncc2c(-c3cnn(C(C)(C)C(=O)N4CCOCC4)c3)cc([C@H]3CC[C@@H](O)CC3)n2n1 [Compound 547] | 100 to 1000 nM | ≤ 100 nM | +++ (“+++” represents a ratio of >100)
11 | COC[C@H](C)Nc1ncc2c(-c3ccnc(N4CCOCC4)c3)cc([C@H]3CC[C@@](C)(O)CC3)n2n1 [Compound 548] | 100 to 1000 nM | ≤ 100 nM | +++ (“+++” represents a ratio of >100)
12 | COC[C@H](C)Nc1ncc2c(-c3ccnc(N4CCOCC4)c3)cc([C@H]3CC[C@](C)(O)CC3)n2n1 [Compound 549] | 100 to 1000 nM | ≤ 100 nM | +++ (“+++” represents a ratio of >100)
13 | COCC(C)Nc1ncc2c(-c3ccc4ocnc4c3)cc(C3CCC(O)CC3)n2n1 (stereo not drawn) [Compound 550] | 100 to 1000 nM | ≤ 100 nM | +++ (“+++” represents a ratio of >100)
14 | COCC(C)Nc1ncc2c(-c3cccc(-c4nnc(C)o4)c3)cc(C3CCC(O)CC3)n2n1 (stereo not drawn) [Compound 551] | 1000 to 10000 nM | ≤ 100 nM | +++ (“+++” represents a ratio of >100)
15 | COCC(C)Nc1ncc2c(-c3ccc4ncoc4c3)cc(C3CCC(O)CC3)n2n1 (stereo not drawn) [Compound 552] | 100 to 1000 nM | ≤ 100 nM | +++ (“+++” represents a ratio of >100)
16 | COCC(C)Nc1ncc2c(-c3ccc4[nH]cnc4c3)cc(C3CCC(O)CC3)n2n1 (stereo not drawn) [Compound 553] | 100 to 1000 nM | ≤ 100 nM | +++ (“+++” represents a ratio of >100)
17 | COC[C@H](C)Nc1ncc2c(-c3cnn(C(C)(C)C(=O)N4CC[C@H](O)C4)c3)cc([C@H]3CC[C@H](O)CC3)n2n1 [Compound 554] | 1000 to 10000 nM | ≤ 100 nM | +++ (“+++” represents a ratio of >100)
18 | COC[C@H](C)Nc1ncc2c(-c3cnn(C(C)(C)C(=O)N4CC[C@@H](O)C4)c3)cc([C@H]3CC[C@H](O)CC3)n2n1 [Compound 555] | 1000 to 10000 nM | ≤ 100 nM | +++ (“+++” represents a ratio of >100)
19 | COC[C@H](C)Nc1ncc2c(-c3cnn(C(C)(C)C(=O)N4CCOC(C(C)(C)O)C4)c3)cc([C@H]3CC[C@H](O)CC3)n2n1 (stereo partly drawn) [Compound 556] | 1000 to 10000 nM | ≤ 100 nM | +++ (“+++” represents a ratio of >100)
20 | CC(C)(O)C1CN(c2cc(-c3cc([C@H]4CC[C@H](O)CC4)n4nc(NCCOC(F)F)ncc34)ccn2)CCO1 (stereo partly drawn) [Compound 557] | 100 to 1000 nM | ≤ 100 nM | +++ (“+++” represents a ratio of >100)
21 | COC[C@H](C)Nc1ncc2c(-c3ccnc(N4CCO[C@H](C(C)(C)O)C4)c3)cc([C@H]3CC[C@H](O)CC3)n2n1 [Compound 558] | 100 to 1000 nM | ≤ 100 nM | +++ (“+++” represents a ratio of >100)
22 | COCC(C)Nc1ncc2c(-c3ccnc(N4CCOC(C(C)(C)O)C4)c3)cc(C3CCC(O)CC3)n2n1 (stereo not drawn) [Compound 559] | 100 to 1000 nM | ≤ 100 nM | +++ (“+++” represents a ratio of >100)
23 | COC[C@H](C)Nc1ncc2c(-c3cnn(C(C)(C)C(=O)N4CCOCC4)c3)cc([C@H]3CC[C@](C)(O)CC3)n2n1 [Compound 560] | 100 to 1000 nM | ≤ 100 nM | +++ (“+++” represents a ratio of >100)
24 | COC[C@H](C)Nc1ncc2c(-c3cnn(C(C)(C)C(=O)N4CCOCC4)c3)cc([C@H]3CC[C@@](C)(O)CC3)n2n1 [Compound 561] | 100 to 1000 nM | ≤ 100 nM | +++ (“+++” represents a ratio of >100)
25 | COCC(C)Nc1ncc2c(-c3cccc(N4CCOCC4)c3)cc(C3CCC(O)CC3)n2n1 (stereo not drawn) [Compound 562] | ≤ 100 nM | ≤ 100 nM | +++ (“+++” represents a ratio of >100)
26 | COC[C@H](C)Nc1ncc2c(-c3cnn(C(C)(C)c4nnc(C5CC5)o4)c3)cc([C@H]3CC[C@H](O)CC3)n2n1 [Compound 563] | 100 to 1000 nM | ≤ 100 nM | +++ (“+++” represents a ratio of >100)
27 | COC[C@H](C)Nc1ncc2c(-c3cnn(C4COC4)c3)cc([C@H]3CC[C@@H](O)CC3)n2n1 [Compound 564] | ≤ 100 nM | ≤ 100 nM | ++ (“++” represents a ratio of between 10 and 100)
